Among the data in US20070249670A1, “Glycogen Phosphorylase Inhibitor Compounds and Pharmaceutical Compositions Thereof” (SMITHKLINE BEECHAM CORPORATION, priority 2004, published 2007) are IC50 values, retold here.

Counter-ions that a name gives are not always drawn.

This assay addresses T1, human liver glycogen phosphorylase a (HLGPa) (Homo sapiens, UniProt P06737).
T1 construct: creating a full-length cDNA fused at the 5′ end to codons for methionine-glycine-alanine-histidine; 6xHis tag (leader Met-Gly-Ala-His6-Gly-Gly) (N); made in house; host or cells: E. coli (bacterial expression plasmid pTXK1007LTev)
T1 sequence (P06737 2-847 limits assumed): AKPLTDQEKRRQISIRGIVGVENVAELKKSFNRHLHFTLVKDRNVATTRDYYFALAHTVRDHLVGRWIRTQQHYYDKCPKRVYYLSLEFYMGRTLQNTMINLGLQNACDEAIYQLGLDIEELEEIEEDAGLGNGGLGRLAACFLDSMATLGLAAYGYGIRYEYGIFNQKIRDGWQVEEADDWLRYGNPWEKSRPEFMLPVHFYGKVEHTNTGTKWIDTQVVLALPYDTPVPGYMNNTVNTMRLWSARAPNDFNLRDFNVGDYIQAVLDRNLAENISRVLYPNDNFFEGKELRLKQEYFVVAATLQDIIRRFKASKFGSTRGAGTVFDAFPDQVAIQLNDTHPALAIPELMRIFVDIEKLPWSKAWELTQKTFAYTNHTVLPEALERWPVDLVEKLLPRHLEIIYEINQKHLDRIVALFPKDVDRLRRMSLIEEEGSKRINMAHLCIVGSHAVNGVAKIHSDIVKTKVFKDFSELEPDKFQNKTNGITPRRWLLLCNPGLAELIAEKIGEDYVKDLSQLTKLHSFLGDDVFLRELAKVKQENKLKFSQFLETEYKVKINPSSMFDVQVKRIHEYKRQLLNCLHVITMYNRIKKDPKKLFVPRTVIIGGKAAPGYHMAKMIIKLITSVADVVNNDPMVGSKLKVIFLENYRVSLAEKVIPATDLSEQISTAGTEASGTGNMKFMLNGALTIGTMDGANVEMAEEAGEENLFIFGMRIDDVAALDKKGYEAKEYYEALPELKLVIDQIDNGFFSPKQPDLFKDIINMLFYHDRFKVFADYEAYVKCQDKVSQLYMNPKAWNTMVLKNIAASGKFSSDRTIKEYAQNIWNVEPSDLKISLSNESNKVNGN
Description: Human liver glycogen phosphorylase a enzymatic activity assay (coupled, fluorescent resorufin readout, with and without 10 mM glucose). In kind it is biochemical.

[1] abbreviates: human liver glycogen phosphorylase a enzymatic activity assay.
Where [2] appears, read: human liver glycogen phosphorylase a, table does not say whether with or without 10 mM glucose.

Broadly, the IC50 is the midpoint of a concentration-inhibition curve. For `Cc1cc(C)c(NC(=O)Nc2cc(-c3ccccc3)ccc2C(=O)N[C@H](C(=O)O)C2CCCCC2)c(C)c1` [Example 182, (2S)-Cyclohexyl({[3-({[(2,4,6-trimethylphenyl)amino]carbonyl}-amino)-4-biphenylyl]carbonyl}amino)ethanoic acid], half-maximal inhibition under setting [1] (IC50) required 17 nM.

Under setting [1], `C[C@H](NC(=O)c1cc2ccccc2cc1NC(=O)Nc1ccccc1Cl)C(=O)O` [Example 27, N-[3-({[(2-chlorophenyl)amino]carbonyl}amino)-2-naphthoyl]-L-alanine] returned an IC50 of 13500 nM.

For `CC[C@H](C)[C@H](NC(=O)c1c(NC(=O)Nc2c(C)cccc2Cl)sc2c1CCCC2)C(=O)O` [Example 128, N-{[2-({[(2-chloro-6-methylphenyl)amino]carbonyl}amino)-4,5,6,7-tetrahydro-1-benzothien-3-yl]carbonyl}-L-isoleucine], the IC50 under setting [1] came to 14800 nM.

In the case of `CCCOc1cc(C)c(NC(=O)Nc2cc3ccccc3cc2C(=O)N[C@H](C(=O)O)C2CCCCC2)c(C)c1` [Example 473, (2S)-cyclohexyl[({3-[({[2,6-dimethyl-4-(propyloxy)phenyl]amino}carbonyl)amino]-2-naphthalenyl}carbonyl)amino]ethanoic acid], half-maximal inhibition under setting [1] (IC50) was put at 1 nM.

In the case of `O=C(Nc1sc(-c2ccccc2)cc1C(=O)N[C@H](C(=O)O)C1CCCCC1)Nc1c(Cl)cccc1Cl` [Example 384, (2S)-cyclohexyl({[2-({[(2,6-dichlorophenyl)amino]carbonyl}amino)-5-phenyl-3-thienyl]carbonyl}amino)ethanoic acid], the IC50 under setting [2] was determined as 230 nM.

As for `Cc1cc(C)c(NC(=O)Nc2cc3ccccc3cc2C(=O)N[C@@H](CCNC(=O)OC(C)(C)C)C(=O)O)c(C)c1` [Example 516, (2S)-4-({[(1,1-dimethylethyl)oxy]carbonyl}amino)-2-({[3-({[(2,4,6-trimethylphenyl)amino]carbonyl}amino)-2-naphthalenyl]carbonyl}amino)butanoic acid], half-maximal inhibition under setting [1] (IC50) required 89 nM.

`O=C(Nc1cc2ccccc2cc1C(=O)N[C@H](C(=O)O)C1CCCCC1)Nc1c(F)cccc1F` [Example 153, (2S)-cyclohexyl({[3-({[(2,6-difluorophenyl)amino]carbonyl}amino)-2-naphthalenyl]carbonyl}amino)ethanoic acid] showed a half-maximal inhibitory concentration (IC50) under setting [1] of 4850 nM.

Take `O=C(Nc1sc(-c2cccnc2)cc1C(=O)O)Nc1c(Cl)cccc1Cl` [Example 414, 2-({[(2,6-dichlorophenyl)amino]carbonyl}amino)-5-(3-pyridinyl)-3-thiophenecarboxylic acid]: the IC50 under setting [1] was found to be 2720 nM.

Regarding `Cc1cc(C)c(NC(=O)Nc2cc3ccccc3cc2C(=O)N[C@H](C(=O)O)c2ccc(O)cc2)c(C)c1` [Example 501, (2S)-(4-hydroxyphenyl)({[3-({[(2,4,6-trimethylphenyl)amino]carbonyl}amino)-2-naphthalenyl]carbonyl}amino)ethanoic acid], half-maximal inhibition under setting [1] (IC50) required 12 nM.

The compound `Cc1cccc(C)c1NC(=O)Nc1sc2ccccc2c1C(=O)N[C@H](C(=O)O)C1CCCCC1` [Example 4, (2S)-cyclohexyl({[2-({[(2,6-dimethylphenyl)amino]carbonyl}amino)-1-benzothien-3-yl]carbonyl}amino)acetic acid] returned an IC50 under setting [1] of 730 nM.

In turn, `Cc1cccc(C)c1NC(=O)Nc1cc(Br)ccc1C(=O)N[C@H](C(=O)O)C1CCCCC1` [Example 173, (2S)-({[4-Bromo-2-({[(2,6-dimethylphenyl)amino]carbonyl}amino)phenyl]carbonyl}amino)(cyclohexyl)-ethanoic acid] had an IC50 under setting [1] of 310 nM.

Compound `Cc1cccc(C)c1NC(=O)Nc1cc(-c2ccncc2)ccc1C(=O)N[C@H](C(=O)O)C1CCCCC1` [Example 185, (2S)-Cyclohexyl({[2-({[(2,6-dimethylphenyl)amino]carbonyl}amino)-4-(4-pyridinyl)phenyl]carbonyl}amino)ethanoic acid] showed an IC50 under setting [1] of 170 nM.

Under setting [2], `Cc1cc(C)c(NC(=O)Nc2cc(-c3ccc(F)c(F)c3)ccc2C(=O)NC2(C(=O)O)CCCCCCC2)c(C)c1` [Example 227, 1-({[3′,4′-Difluoro-3-({[(2,4,6-trimethylphenyl)amino]carbonyl}amino)-4-biphenylyl]carbonyl}amino)cyclooctanecarboxylic acid] had an IC50 of 1 nM.

`COc1ccc(-c2cc(NC(=O)Nc3c(C)cc(C)cc3C)c(C(=O)N[C@@H](CC3CCCCC3)C(=O)O)s2)cc1` [Example 444, 3-cyclohexyl-N-{[5-[4-(methyloxy)phenyl]-3-({[(2,4,6-trimethylphenyl)amino]carbonyl}amino)-2-thienyl]carbonyl}-L-alanine]: inhibition under setting [1] was half-maximal at 110 nM (IC50).

Consider `Cc1cccc(Cl)c1NC(=O)Nc1cc(F)c(F)cc1C(=O)N[C@H](C(=O)O)C1CCCCC1` [Example 112, (2S)-{[2-({[(2-chloro-6-methylphenyl)amino]carbonyl}amino)-4,5-difluorobenzoyl]amino}(cyclohexyl)acetic acid], for which the IC50 under setting [1] was found to be 860 nM.

In turn, `Cc1cccc(C)c1NC(=O)Nc1cc2ccccc2cc1C(=O)N(C)CC(=O)O` [Example 491, N-{[3-({[(2,6-dimethylphenyl)amino]carbonyl}amino)-2-naphthalenyl]carbonyl}-N-methylglycine] returned an IC50 under setting [1] of 2110 nM.

In the case of `Cc1cc(C)c(NC(=O)Nc2cc3ccccc3cc2C(=O)NC(C(=O)O)C2CCC(NC3CCC3)CC2)c(C)c1` (mixture of isomers) [Example 347, (cis and trans)-[4-(cyclobutylamino)cyclohexyl]({[3-({[(2,4,6-trimethylphenyl)amino]carbonyl}amino)-2-naphthalenyl]carbonyl}amino)acetic acid], under setting [2], the IC50 was 810 nM.

Consider `Cc1cc(C)c(NC(=O)Nc2cc3ccccc3cc2C(=O)NC2(C(=O)O)CCNCC2)c(C)c1` [Example 288, 4-({[3-({[(2,4,6-trimethylphenyl)amino]carbonyl}amino)-2-naphthalenyl]carbonyl}amino)-4-piperidinecarboxylic acid trifluoroacetate], for which the IC50 under setting [2] came out at 6170 nM.

The compound `O=C(Nc1cc(F)ccc1C(=O)N[C@H](C(=O)O)C1CCCCC1)Nc1c(Cl)cc(OC(F)(F)F)cc1Cl` [Example 208, (2S)-Cyclohexyl{[(2-{[({2,6-dichloro-4-[(trifluoromethyl)oxy]phenyl}amino)carbonyl]amino}-4-fluorophenyl)carbonyl]amino}ethanoic acid] registered an IC50 under setting [2] of 130 nM.

Under setting [2], `Cc1cc(C)c(NC(=O)Nc2cc(-c3ccc(F)c(F)c3)ccc2C(=O)N[C@@H](CCC(=O)O)C(=O)O)c(C)c1` [Example 379, N-{[3′,4′-difluoro-3-({[(2,4,6-trimethylphenyl)amino]carbonyl}amino)-4-biphenylyl]carbonyl}-L-glutamic acid] showed an IC50 of 84 nM.

In the case of `Cc1cc(C)c(NC(=O)Nc2cc3ccccc3cc2C(=O)N[C@@](C)(CC(C)C)C(=O)O)c(C)c1` [Example 269, 2-methyl-N-{[3-({[(2,4,6-trimethylphenyl)amino]carbonyl}amino)-2-naphthalenyl]carbonyl}leucine], under setting [2], the midpoint of inhibition, the IC50, lay at 210 nM.

`Cc1cc(C)c(NC(=O)Nc2cc(-c3ccc(F)cc3)ccc2C(=O)N[C@H](C(=O)O)C2CCCCC2)c(C)c1` [Example 223, (2S)-Cyclohexyl({[4′-fluoro-3-({[(2,4,6-trimethylphenyl)amino]carbonyl}amino)-4-biphenylyl]carbonyl}amino)ethanoic acid]: the IC50 under setting [2] was determined as 9 nM.
